One experiment concerns liver cancer cell lines. Conditions: cited from earlier work.
In a further experiment the target is LXRα (Homo sapiens, UniProt Q13133). The experiment is described as follows: LXR HTR-FRET coactivator (b-SRC1) recruitment assay, LXRα. It is filed as biochemical. Conditions: FRET 12-point dose response, GST-LXR LBD. From the text: (§1) The LXR assay is configured using time-resolved fluorescence resonance energy transfer technology (HTR-FRET) (see Albers et al., J. Biol. Chem. 2006 24; 281(8) 4920-30; Chin J, Assay Drug Dev. Technol. 2003 1(6):777-87).
(§2) In the presence of an agonist, a fusion protein of glutathione S-transferase (GST) and LXR ligand binding domain (GST-LXR LBD) associates with a biotin-labeled nuclear receptor coactivator (b-SRC1). A fluorescent signal is detected in the presence of Eu-labeled anti GST antibodies and streptavidin-labeled allophycocyanin (APC). FRET is made possible by agonist-dependent close interaction of the test proteins.
(§3) Compounds which act as agonists at the LXR ligand binding domain were detected by an increase in time-resolved fluorescence. This LXR-FRET was performed as described by Albers et al. (loc. cit.).
(§4) FRET-active compounds were assayed in a FRET 12-point dose response experiment to determine the EC50—values of the compounds mentioned in the following Table 5.

The target of another experiment is LXRβ (Homo sapiens, UniProt P55055). The experiment is described as follows: LXR HTR-FRET coactivator (b-SRC1) recruitment assay, LXRβ. The following applies: FRET 12-point dose response, GST-LXR LBD. It is filed as biochemical.
From the text: as §1, §2, §3, §4

The test system of another experiment is lung cancer cells. Conditions: cited from earlier work.
In experiment [1] the test system is female APOE*3-Leiden(E3L).CETP transgenic mice. The experiment is described as follows: Pooled lipoprotein profiles (FPLC) in APOE*3Leiden.CETP mice. Format: in vivo. Conditions: after 5 weeks of treatment, pooled plasma per group.
The test system is the same in experiment [2]. The experiment is described as follows: Plasma lipids in APOE*3Leiden.CETP transgenic mice on Western-type diet. Format: in vivo. Conditions: for Plasma cholesterol: mean ± SD of 10 mice. An excerpt: The aim of the study was to evaluate the effects of extract IMD-XT0022 (see example 1c) on plasma lipids in female APOE*3-Leiden(E3L).CETP transgenic mice (hereinafter referred to as APOE*3Leiden mice). The effects were compared with phytosterol as a positive control.
Forty female APOE*3Leiden mice (from the specific pathogen free breeding stock at TNO-Metabolic Health Research, Leiden, Netherlands), 15-16 weeks of age at the start of the experiment were housed during the experiment in Macrolon® cages (maximally 5 animals per cage) in clean-conventional animal rooms (relative humidity 50-60%, temperature about 21° C., light cycle 7 am to 7 pm). Individual mice were marked by ear-punch holes and supplied with food and acidified tap water ad libitum. Dietary ingredients were provided by Hope Farms (Woerden, the Netherlands): The mice received a semi-synthetic modified Western-type diet (WTD) as described by Nishina et al., J. Lipid. Res. 1990:31:859, containing cholesterol (0.1% w/w, final concentration) and saturated fat (15% w/w cacao butter). The animals were put on a Western-type diet with 0.1% cholesterol for 4 weeks (run-in period). After the run-in period, APOE*3Leiden mice were sub-divided into three groups of 10 mice each and treated during 5 weeks with the following compounds: Control group (vehicle gavage, Western-type diet without diet additions), extract group (Western-type diet without diet additions, 100 mg/kg/d extract IMD-XT0022 via daily gavage) or phytosterol group (vehicle gavage, Western-type diet with addition of 1 wt. % of free phytosterol). One week before first administration of IMD-XT0022 mice were gavaged with vehicle to get used to the procedure. Food intake and body weight were measured weekly during the treatment period (t=0, 1, 2, 3, 4 and 5 weeks). After two and five weeks of treatment blood samples were taken after a 4 hour fasting period. After 3 weeks of treatment vehicle Delios V oil (a medium-chain triglyceride oil obtained from BASF Personal Care and Nutrition GmbH, Düsseldorf, Germany) was replaced by Polyethylengycol-400 (PEG-400, Sigma-Aldrich, Steinheim, Germany) for all groups.
Extract IMD-XT0022 was administered daily by oral gavage between 8.00 and 11.00 am CET. In the phytosterol group phytosterol was administered orally as admix to the WTD (1% w/w free phytosterol). The control group and the phytosterol group received the vehicle accordingly. The gavage volume during the treatment period was 10 ml/kg and was adjusted weekly based on the measured body weight of the respective week.
Plasma cholesterol, triglycerides and HDL cholesterol were measured individually at t=0, 2 and 5 weeks. On group level ALT, AST levels and lipoprotein profiles (at t=0 and 5 weeks) were measured. Feces were collected (per cage) during week 5.
On the mornings of the blood sampling time points of t=weeks 2 and t=5 weeks, gavages were not performed between 8.00-11.00 am, but were performed after the blood sampling. At t=5 weeks, 3 days after the last blood sampling, mice were sacrificed after a 4 hour fasting period (and without giving a gavage on the day of sacrifice) by CO2 suffocation. EDTA-plasma was collected via heart puncture and stored at <−70° C. and several organs were collected.
After a 4 weeks run-in period, 10 low-responder mice were removed from the study. The remaining 30 mice where subdivided into 3 groups of 10 mice each, matched for body weight, plasma cholesterol, triglycerides, HDL-cholesterol and age (t=0) […]

Sequence of LXRβ (P55055 222-460 limits assumed): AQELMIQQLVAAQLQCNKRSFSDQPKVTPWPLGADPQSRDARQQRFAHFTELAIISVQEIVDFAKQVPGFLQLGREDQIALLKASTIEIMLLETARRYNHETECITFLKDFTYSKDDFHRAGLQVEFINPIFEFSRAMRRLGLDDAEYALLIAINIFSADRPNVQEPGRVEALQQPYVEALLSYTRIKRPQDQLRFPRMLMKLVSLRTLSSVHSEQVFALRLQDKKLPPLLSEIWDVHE
Sequence of LXRβ (Q15788 whole entry partner, the tested form may be a part): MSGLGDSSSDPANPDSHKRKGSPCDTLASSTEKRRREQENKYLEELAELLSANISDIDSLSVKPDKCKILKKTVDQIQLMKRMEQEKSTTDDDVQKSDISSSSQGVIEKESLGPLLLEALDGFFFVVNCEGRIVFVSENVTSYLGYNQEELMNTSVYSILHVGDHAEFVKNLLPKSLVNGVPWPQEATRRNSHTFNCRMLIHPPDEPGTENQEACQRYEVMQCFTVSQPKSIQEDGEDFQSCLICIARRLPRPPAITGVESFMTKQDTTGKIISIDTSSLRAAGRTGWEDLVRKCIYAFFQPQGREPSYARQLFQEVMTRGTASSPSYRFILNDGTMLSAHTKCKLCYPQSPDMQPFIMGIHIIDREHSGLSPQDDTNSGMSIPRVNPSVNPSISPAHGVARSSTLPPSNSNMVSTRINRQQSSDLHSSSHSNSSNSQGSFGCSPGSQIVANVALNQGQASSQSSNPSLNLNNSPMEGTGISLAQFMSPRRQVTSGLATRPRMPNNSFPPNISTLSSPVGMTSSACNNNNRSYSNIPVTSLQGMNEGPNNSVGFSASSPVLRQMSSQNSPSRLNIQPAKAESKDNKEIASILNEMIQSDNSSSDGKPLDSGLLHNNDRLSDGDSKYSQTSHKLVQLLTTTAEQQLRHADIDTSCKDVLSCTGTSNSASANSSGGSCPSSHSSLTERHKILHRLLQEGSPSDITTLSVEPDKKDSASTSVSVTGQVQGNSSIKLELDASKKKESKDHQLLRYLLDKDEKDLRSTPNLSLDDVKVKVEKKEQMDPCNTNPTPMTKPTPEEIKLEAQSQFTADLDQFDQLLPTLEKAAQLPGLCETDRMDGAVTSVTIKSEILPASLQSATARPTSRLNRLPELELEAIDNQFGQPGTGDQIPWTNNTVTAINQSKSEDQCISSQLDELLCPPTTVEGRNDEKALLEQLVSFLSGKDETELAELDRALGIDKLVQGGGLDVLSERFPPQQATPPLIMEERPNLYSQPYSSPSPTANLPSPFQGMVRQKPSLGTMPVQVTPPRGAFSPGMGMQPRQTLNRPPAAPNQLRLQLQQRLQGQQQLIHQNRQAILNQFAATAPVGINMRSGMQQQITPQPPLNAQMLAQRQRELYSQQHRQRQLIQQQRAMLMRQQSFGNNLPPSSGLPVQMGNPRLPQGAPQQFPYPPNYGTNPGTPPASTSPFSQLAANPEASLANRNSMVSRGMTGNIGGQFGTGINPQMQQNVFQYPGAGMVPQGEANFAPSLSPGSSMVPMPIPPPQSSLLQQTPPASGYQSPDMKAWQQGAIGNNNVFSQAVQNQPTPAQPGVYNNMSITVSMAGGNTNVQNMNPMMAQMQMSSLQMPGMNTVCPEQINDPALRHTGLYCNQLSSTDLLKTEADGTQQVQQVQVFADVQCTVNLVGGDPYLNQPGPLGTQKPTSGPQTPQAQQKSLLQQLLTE
Sequence of LXRα (Q13133 209-447 limits assumed): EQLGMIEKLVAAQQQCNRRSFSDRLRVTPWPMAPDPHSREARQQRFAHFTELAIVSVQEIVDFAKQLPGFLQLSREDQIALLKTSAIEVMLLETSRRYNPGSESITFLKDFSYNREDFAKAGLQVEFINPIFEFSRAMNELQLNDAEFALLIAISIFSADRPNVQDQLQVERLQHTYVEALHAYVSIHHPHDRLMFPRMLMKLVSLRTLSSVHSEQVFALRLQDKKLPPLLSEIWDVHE
Sequence of LXRα (Q15788 whole entry partner, the tested form may be a part): as the sequence (Q15788 whole entry partner, the tested form may be a part) above

Regarding `COc1ccc2c(c1C)C=C[C@]1(C)[C@@H]3CC[C@]21O[C@@]1(OC(C)(C)[C@@H](C)[C@H]1O)[C@H]3C` [Compound 1, (2S,3S,3′R,4R,4′S,4aR,10bR)-4,4′,4a,5′-Tetrahydro-8-methoxy-3,4′,4a,5′,5′,7-hexamethyl-spiro[4,10b-ethano-10bH-naphtho[1,2-b]pyran-2(3H),2′(3′H)-furan]-3′-ol], the “Biological activities against liver cancer cell lines” value in the experiment on liver cancer cell lines is recorded as “confirmed the biological activities”. Moreover, the EC50 was found to be 1.4 µM at LXRα and 25 µM on LXRβ.

Regarding `Cc1c(O)ccc2c1C=C[C@]1(C)[C@@H]3CC[C@]21O[C@@]1(OC(C)(C)[C@@H](C)[C@H]1O)[C@H]3C` [Compound 2, (2S,3S,3′R,4R,4′S,4aR,10bR)-4,4′,4a,5′-tetrahydro-3,4′,4a,5′,5′,7-hexamethyl-spiro[4,10b-ethano-10bH-naphtho[1,2-b]pyran-2(3H),2′(3′H)-furan]-3′,8-diol], the EC50 was found to be 1.1 µM at LXRα and 5.5 µM at LXRβ.

Take `COc1ccc2c(c1CO)C=C[C@]1(C)[C@@H]3CC[C@]21O[C@@]1(OC(C)(C)[C@@H](C)[C@H]1O)[C@H]3C` [Compound 3, (2S,3S,3′R,4R,4′S,4aR,10bR)-4,4′,4a,5′-Tetrahydro-3′-hydroxy-8-methoxy-3,4′,4a,5′,5′-pentamethyl-spiro[4,10b-ethano-10bH-naphtho[1,2-b]pyran-2(3H),2′(3′H)-furan]-7-methanol]: the results for the EC50 at LXRα and on LXRβ were 11 µM and 24 µM, respectively.

Consider `C[C@H]1[C@@H](O)[C@]2(OC1(C)C)O[C@]13CC[C@H]([C@@H]2C)[C@@]1(C)CC=C1C3=CC(=O)C2=CC(=O)CC[C@@]21C` [Compound 5, (14β,22S,23R)-14,22:22,25-Diepoxy-23-hydroxy-ergosta-4,7,9-triene-3,6-dione], for which the EC50 on LXRα was determined as 7.6 µM; on LXRβ, 24 µM.

On to `C[C@H]1[C@H](O)[C@@]2(OC1(C)C)O[C@]13CC[C@H]([C@@H]2C)[C@@]1(C)C=CC1=C3C=CC2=CC(=O)CC[C@@]21C` [Compound 6, (14β,22S,23S)-14,22:22,25-Diepoxy-23-hydroxy-ergosta-4,6,8,11-tetraen-3-one], for which the EC50 on LXRα was 5.5 µM; at LXRβ, 14 µM.

Consider `COc1ccc2c(c1C)C=C[C@@]1(C)[C@]23CC[C@]1(O)[C@H](C)[C@]1(OC(C)(C)[C@@H](C)[C@H]1O)O3` [Compound 7, (2S,3S,3′R,4R,4′S,4aR,10bR)-4,4′,4a,5′-Tetrahydro-17-hydroxy-8-methoxy-3,4′,4a,5′,5′,7-hexamethyl-spiro[4,10b-ethano-10bH-naphtho[1,2-b]pyran-2(3H),2′(3′H)-furan]-3′-ol], for which the EC50 on LXRα turned out to be 31 µM; at LXRβ, 34 µM.

As for `COc1ccc2c(c1C)CC(=O)[C@]1(C)[C@@H]3CC[C@]21O[C@@]1(OC(C)(C)[C@@H](C)[C@H]1O)[C@H]3C` [Compound 8, (2S,3S,3′R,4R,4aR,4′S,10bS)-3′-hydroxy-8-methoxy-3,4a,4′,5′,5′,7-hexamethyl-4,4a,4′,5′-tetrahydro-3H,3′H-spiro[4,10b-ethanobenzo[h]chromene-2,2′-furan]-5(6H)-one], the EC50 on LXRα came to 24 µM; at LXRβ, 31 µM.

Regarding `C[C@H]1[C@@H](O)[C@@]2(OC1(C)C)O[C@]13CC[C@H]([C@@H]2C)[C@@]1(C)[C@H](O)C=C1C3=CC(=O)C2=CC(=O)CC[C@@]21C` [Compound 9, (1R,2S,2′S,3′R,4aS,4′S,10aR,12R,12aS)-3′,12-dihydroxy-2,4′,5′,5′,10a,12a-hexamethyl-4′,5′,10,10a,12,12a-hexahydro-1H,3′H-spiro[1,4a-ethanonaphtho[1,2-h]chromene-3,2′-furan]-6,8(2H,9H)-dione], the EC50 at LXRα amounted to 1 µM; at LXRβ it was 4.6 µM.

Consider `COc1ccc2c(c1C)CC[C@]1(C)[C@@H]3CC[C@]21O[C@@]1(OC(C)(C)[C@@H](C)[C@H]1O)[C@H]3C` [Compound 14, (2S,3S,3′R,4R,4aR,4′S,10bR)-8-methoxy-3,4a,4′,5′,5′,7-hexamethyl-4,4a,4′,5,5′,6-hexahydro-3H,3′H-spiro[4,10b-ethanobenzo[h]chromene-2,2′-furan]-3′-ol], for which the “Biological activities against liver cancer cell lines” value in the experiment on liver cancer cell lines is reported as “confirmed the biological activities”.

As for `CO[C@@H]1C=C2C3CC[C@H](C(C)/C=C/C(C)C(C)C)[C@@]3(C)CC[C@@H]2[C@@]2(C)CC[C@H](O)C[C@]12O` (stereo partly drawn) [blazein], the “Apoptosis in lung cancer cells” value with lung cancer cells was “induced apoptosis”.

For phytosterol, in experiment [1], the “Decrease in the area under the curve of the VLDL peak, cholesterol” value is 25% and the “Decrease in the area under the curve of the VLDL peak, phospholipid” value is recorded as 21%. Also, in experiment [2] (after 5 weeks of treatment), the “Decrease of plasma cholesterol as compared to the control group” value is reported as 16% and the “Decrease of plasma triglycerides as compared to the control group” value is listed as 36%. Further, the “Plasma HDL, effect as compared to the control group” value in experiment [2] (mouse, in vivo) is on record as “not affected”. The Plasma cholesterol in experiment [2] (t = 0 weeks (after run-in, before treatment)) was 10.9 ± 1.6 mM. The Plasma cholesterol in experiment [2] (t = 2 weeks of treatment, extract 100 mg/kg/d gavage, phytosterol 1 wt.% in diet) stood at 9.4 ± 1.3 mM. The Plasma cholesterol in experiment [2] (t = 5 weeks of treatment, extract 100 mg/kg/d gavage, phytosterol 1 wt.% in diet) is listed as 8.1 ± 1.8 mM.

The EC50 is the midpoint of the concentration-response curve. A higher EC50 goes with a need for much substance.

Source of the values: patent US9453016B2, “Terpenoid spiro ketal compounds with LXR agonists activity, their use and formulations with them” (priority 2010, dated 2016).
